Results taken from patent publication US20070043084A1, “1,2-Diarylimidazoles useful as inhibitors of cox” (Astellas Pharma Inc., priority 2003, published 2007).

Tests used:
COX-I = target: T1, COX-I (Homo sapiens, UniProt P23219); assay: Whole blood assay for COX-I (TXB2 production); format: cell-based; conditions: 1 hr at 37° C.
T1 construct: Fresh blood was collected by syringe without anticoagulants from volunteers with consent; from tissue; host or cells: fresh human whole blood from volunteers, no anticoagulant, left to clot
T1 sequence (P23219 24-599): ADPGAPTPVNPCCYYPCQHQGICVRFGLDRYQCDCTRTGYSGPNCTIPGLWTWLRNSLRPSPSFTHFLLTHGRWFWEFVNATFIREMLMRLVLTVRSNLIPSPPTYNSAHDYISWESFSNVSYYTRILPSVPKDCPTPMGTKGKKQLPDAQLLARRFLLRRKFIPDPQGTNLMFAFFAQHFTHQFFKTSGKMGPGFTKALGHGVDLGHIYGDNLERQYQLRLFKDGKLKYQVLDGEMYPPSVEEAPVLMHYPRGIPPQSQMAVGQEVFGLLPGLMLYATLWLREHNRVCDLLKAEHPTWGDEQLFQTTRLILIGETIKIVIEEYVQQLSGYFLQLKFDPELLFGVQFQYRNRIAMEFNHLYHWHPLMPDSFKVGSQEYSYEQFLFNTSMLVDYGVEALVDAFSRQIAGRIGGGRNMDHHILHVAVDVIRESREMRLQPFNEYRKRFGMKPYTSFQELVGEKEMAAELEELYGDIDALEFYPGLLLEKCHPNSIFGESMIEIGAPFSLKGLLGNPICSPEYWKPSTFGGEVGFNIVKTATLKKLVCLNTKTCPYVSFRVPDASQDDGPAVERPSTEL
Method: [B] Inhibiting Activity Against COX-I and COX-II (Whole Blood Assay): (i) Test Method: Whole Blood Assay for COX-I
Fresh blood was collected by syringe without anticoagulants from volunteers with consent. The subjects had no apparent inflammatory conditions and had not taken any medication for at least 7 days prior to blood collection.
500 μl aliquots of human whole blood were immediately incubated with 2 μl of either dimethyl sulfoxide vehicle or a test compound at final concentrations for 1 hr at 37° C. to allow the blood to clot. Appropriate treatments (no incubation) were used as blanks. At the end of the incubation, 5 μl of 250 mM Indomethacin was added to stop the reaction. The blood was centrifuged at 6000×g for 5 min at 4° C. to obtain serum. A 100 μl aliquot of serum was mixed with 400 μl methanol for protein precipitation. The supernatant was obtained by centrifuging at 6000×g for 5 min at 4° C. and was assayed for TXB2 using an enzyme immunoassay kit according to the manufacturer's procedure. For a test compound, the results were expressed as percent inhibition of thromboxane B2(TXB2) production relative to control incubations containing dimethyl sulfoxide vehicle.
The data were analyzed by that a test compound at the indicated concentrations was changed log value and was applied simple linear regression. IC50 value was calculated by least squares method.

COX-II = target: T2, COX-II (Homo sapiens, UniProt P35354); assay: Whole blood assay for COX-II (LPS-induced PGE2 production); format: cell-based; conditions: lipopolysaccharide 24 hrs at 37° C.
T2 construct: lipopolysaccharide for 24 hrs at 37° C. for induction of COX-II; from tissue; host or cells: fresh heparinized human whole blood from volunteers, stimulated with LPS for 24 hrs
T2 sequence (P35354 18-604): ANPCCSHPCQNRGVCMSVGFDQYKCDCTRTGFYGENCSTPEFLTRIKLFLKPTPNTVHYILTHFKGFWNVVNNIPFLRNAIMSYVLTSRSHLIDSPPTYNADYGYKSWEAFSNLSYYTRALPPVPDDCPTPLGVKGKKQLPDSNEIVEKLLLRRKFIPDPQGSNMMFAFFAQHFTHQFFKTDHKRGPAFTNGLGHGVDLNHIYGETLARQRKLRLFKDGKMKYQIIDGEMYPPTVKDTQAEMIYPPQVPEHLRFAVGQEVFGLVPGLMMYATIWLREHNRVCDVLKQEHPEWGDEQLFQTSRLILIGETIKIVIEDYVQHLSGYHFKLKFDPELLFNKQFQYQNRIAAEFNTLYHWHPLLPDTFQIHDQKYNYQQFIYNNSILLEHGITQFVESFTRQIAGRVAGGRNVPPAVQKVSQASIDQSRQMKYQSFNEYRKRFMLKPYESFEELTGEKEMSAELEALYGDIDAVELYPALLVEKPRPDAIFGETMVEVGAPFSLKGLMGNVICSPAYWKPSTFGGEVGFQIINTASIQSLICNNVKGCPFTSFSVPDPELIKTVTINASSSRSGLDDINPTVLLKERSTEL
Method: Whole Blood Assay for COX-II
Fresh blood was collected in heparinized tubes by syringe from volunteers with consent. The subjects had no apparent inflammatory conditions and had not taken any medication for at least 7 days prior to blood collection.
500 μl aliquots of human whole blood were incubated with either 2 μl dimethyl sulfoxide vehicle or 2 μl of a test compound at final concentrations for 15 min at 37° C. This was followed by incubation of the blood with […] of 5 mg/ml lipopolysaccharide for 24 hrs at 37° C. for induction of COX-II. Appropriate PBS treatments (no LPS) were used as blanks. At the end of the incubation, the blood was centrifuged at 6000×g for 5 min at 4° C. to obtain plasma. A 100 μl aliquot of plasma was mixed with 400 μl methanol for protein precipitation. The supernatant was obtained by centrifuging at 6000×g for 5 min at 4° C. and was assayed for prostaglandin E2 (PGE2) using a radioimmunoassay kit after conversion of PGE2 to its methyl oximate derivative according to the manufacturer's procedure.
For a test compound, the results were expressed as percent inhibition of […] production relative to control incubations containing dimethyl sulfoxide vehicle. The data were analyzed by that a test compound at the indicated concentrations was changed log value and was applied simple linear regression. IC50 value was calculated by least squares method.

[1] = tested on: adjuvant arthritis in rats; assay: Analgesic activity: effect on adjuvant arthritis in rats (Randall-Selitto pain threshold); format: in vivo, Lewis rats; conditions: dose 3.2 mg/kg; ratio of threshold pressure of treated vs non-treated arthritic rats, 2 hrs after administration; ratio of 1.5 = effective dose

SMILES | IC50 (COX-I) | IC50 (COX-II) | melting point | The coefficient of analgesic [1]
COc1ccc(-c2nc(C)cn2-c2ccc(OC)cc2)cc1.Cl [Example 21, 1-(4-Methoxyphenyl)-2-(4-methoxyphenyl)-4-methyl-1H-imidazole hydrochloride] | < 10 nM | ≥ 100 nM | 203 to 205 °C | 
COc1ccc(-c2nc(C(F)F)cn2-c2ccc(C#N)cc2)cn1 [Example 40, 1-(4-Cyanophenyl)-4-difluoromethyl-2-(2-methoxy-5-pyridinyl)-1H-imidazole] | < 10 nM | ≥ 100 nM | 160 to 161 °C | >1.5
COc1ccc(-c2nc(C#N)cn2-c2ccc(OC)cc2)cc1.Cl [Example 11, 4-Cyano-1-(4-methoxyphenyl)-2-(4-methoxyphenyl)-1H-imidazole hydrochloride] | < 10 nM | ≥ 100 nM | 142 to 143 °C | >1.5
CCC(=O)c1cn(-c2ccc(OCc3ccccc3)cc2)c(-c2ccc(OC)nc2)n1 [Example 55, 1-(4-Benzyloxyphenyl)-4-ethylcarbonyl-2-(2-methoxy-5-pyridinyl)-1H-imidazole] |  |  | 126 to 128 °C | 
CCOC(=O)c1ccc(-n2cc(C#N)nc2-c2ccc(OC)cc2)cc1 [Example 25-2, 4-Cyano-1-(4-ethoxycarbonylphenyl)-2-(4-methoxyphenyl)-1H-imidazole] |  |  | 139 to 140 °C | 
COc1ccc(-c2nc(C#N)cn2-c2ccc(C#N)cc2)cc1 [Example 27, 4-Cyano-1-(4-cyanophenyl)-2-(4-methoxyphenyl)-1H-imidazole] |  |  | 185 to 186 °C | 
COc1ccc(-c2nc(C(F)F)cn2-c2ccc(C#N)cc2)cc1 [Example 34, 1-(4-Cyanophenyl)-4-difluoromethyl-2-(4-methoxyphenyl)-1H-imidazole] | < 10 nM | ≥ 100 nM | 131 to 132 °C | 
CCOC(=O)c1cn(-c2ccc(OC)cc2)c(-c2ccc(OC)cc2)n1 [Example 9, 4-Ethoxycarbonyl-1-(4-methoxyphenyl)-2-(4-methoxyphenyl)-1H-imidazole] |  |  | 142 to 143 °C | 
COc1ccc(-c2nc(C#N)cn2-c2ccc(OC)cc2)cc1 [Example 12-2, 4-Cyano-1-(4-methoxyphenyl)-2-(4-methoxyphenyl)-1H-imidazole] |  |  | 132 to 134 °C | 
COc1ccc(-c2nc(C(F)(F)F)cn2-c2ccc(O)cc2)cn1 [Example 6, 1-(4-Hydroxyphenyl)-2-(2-methoxy-5-pyridinyl)-4-trifluoromethyl-1H-imidazole] |  |  | 198 to 200 °C | 
COc1ccc(-c2nc(C(N)=O)cn2-c2ccc(OC)cc2)cc1 [Example 10, 4-Carbamoyl-1-(4-methoxyphenyl)-2-(4-methoxyphenyl)-1H-imidazole] |  |  | 167 to 169 °C | 

Now from value to compound, other results behind:

IC50 (COX-I) | IC50 (COX-II) | melting point | SMILES | The coefficient of analgesic [1]
 |  | 135 to 137 °C | CCOC(=O)c1cn(-c2ccc(OC)cc2)c(-c2ccc(OC)nc2)n1 [Example 41-2, 4-Ethoxycarbonyl-1-(4-methoxyphenyl)-2-(2-methoxy-5-pyridinyl)-1H-imidazole] | 
 |  | 116 to 117 °C | COc1ccc(-c2nc(C(C)=O)cn2-c2ccc(OC)cc2)cc1 [Example 28, 4-Acetyl-1-(4-methoxyphenyl)-2-(4-methoxyphenyl)-1H-imidazole] | >1.5
 |  | 102 to 105 °C | COc1ccc(-c2nc(C(=O)O)cn2-c2ccc(OC)cc2)cc1 [Example 18, 4-Carboxy-1-(4-methoxyphenyl)-2-(4-methoxyphenyl)-1H-imidazole] | 
 |  | 185 to 187 °C | COc1ccc(-c2nc(C(=O)C(C)C)cn2-c2ccc(O)cc2)cn1 [Example 58, 4-Isopropylcarbonyl-1-(4-hydroxyphenyl)-2-(2-methoxy-5-pyridinyl)-1H-imidazole] | 
 |  | 221 to 223 °C | CCC(=O)c1cn(-c2ccc(O)cc2)c(-c2ccc(OC)nc2)n1 [Example 56, 4-Ethylcarbonyl-1-(4-hydroxyphenyl)-2-(2-methoxy-5-pyridinyl)-1H-imidazole] | 
 |  | 146 to 147 °C | CCN(CC)C(=O)c1cn(-c2ccc(OCc3ccccc3)cc2)c(-c2ccc(OC)cc2)n1 [Example 48, 1-(4-Benzyloxyphenyl)-4-(N,N-diethylcarbamoyl)-2-(4-methoxyphenyl)-1H-imidazole] | 
< 10 nM | ≥ 100 nM | 140 to 141 °C | COc1ccc(-c2nc(C(F)(F)F)cn2-c2ccc(Br)cc2)cc1 [Example 1-2, 1-(4-Bromophenyl)-2-(4-methoxyphenyl)-4-trifluoromethyl-1H-imidazole] | 
 |  | 118 to 119 °C | CCN(C)C(=O)c1cn(-c2ccc(OCc3ccccc3)cc2)c(-c2ccc(OC)cc2)n1 [Example 46, 1-(4-Benzyloxyphenyl)-4-(N-ethyl-N-methylcarbamoyl)-2-(4-methoxyphenyl)-1H-imidazole] | 
 |  | 118 to 120 °C | COc1ccc(-c2nc(C(=O)C(C)C)cn2-c2ccc(OCc3ccccc3)cc2)cn1 [Example 57, 1-(4-Benzyloxyphenyl)-4-isopropylcarbonyl-2-(2-methoxy-5-pyridinyl)-1H-imidazole] | 
< 10 nM | ≥ 100 nM | 150 to 153 °C | COc1ccc(-c2nc(C(F)F)cn2-c2ccc(OC)cc2)cc1.Cl [Example 17, 4-Difluoromethyl-1-(4-methoxyphenyl)-2-(4-methoxyphenyl)-1H-imidazole hydrochloride] | 
 |  | 215 to 216 °C | COc1ccc(-c2nc(C(F)(F)F)cn2-c2ccc(O)cc2)cc1 [Example 62, 1-(4-Hydroxyphenyl)-2-(4-methoxyphenyl)-4-trifluoromethyl-1H-imidazole] | 
 |  | 143 to 145 °C | COc1ccc(-c2nc(C(F)F)cn2-c2ccc(O)cc2)cc1 [Example 32, 4-Difluoromethyl-1-(4-hydroxyphenyl)-2-(4-methoxyphenyl)-1H-imidazole] | 
< 10 nM | ≥ 100 nM | 130 to 132 °C | COc1ccc(-n2cc(C#N)nc2-c2ccc(OC)nc2)cc1 [Example 4-2, 4-Cyano-1-(4-methoxyphenyl)-2-(2-methoxy-5-pyridinyl)-1H-imidazole] | 
< 10 nM | ≥ 100 nM | 180 to 181 °C | COc1ccc(-c2nc(C3CC3)cn2-c2ccc(OC)cc2)cc1.Cl [Example 20, 4-Cyclopropyl-1-(4-methoxyphenyl)-2-(4-methoxyphenyl)-1H-imidazole hydrochloride] | 
 |  | 109 to 110 °C | CCOC(=O)c1cn(-c2ccc(OCc3ccccc3)cc2)c(-c2ccc(OC)nc2)n1 [Example 35-2, 1-(4-Benzyloxyphenyl)-4-ethoxycarbonyl-2-(2-methoxy-5-pyridinyl)-1H-imidazole] | 
< 10 nM | ≥ 100 nM | 155 to 158 °C | COc1ccc(-c2nc(C(F)(F)F)cn2-c2ccc(C#N)cc2)cn1 [Example 8, 1-(4-Cyanophenyl)-2-(2-methoxy-5-pyridinyl)-4-trifluoromethyl-1H-imidazole] | 
